From PubChem BioAssay AID1259408 (Genetic Toxicology Data Bank (GENE-TOX), 2018)
Activity calls are given as the source filed them. No rule for the calls is given here.

System: GENE-TOX genotoxicity assays, various organisms and cells
Assay: GENE-TOX mutagenicity studies
Settings: for call: Assay Type: In vivo carcinogenicity studies
[1] = Species/Cell Type: Chinese hamster lung (V79) cells, Assay Type: Forward gene mutation at the HPRT or ouabain locus, Assay Code: V79+, Evaluation Type: Evaluation A (Pre-1980)
[2] = Species/Cell Type: Bacillus subtilis (H17 vs M45), Assay Type: Rec-assay, spot test, DNA effects (bacterial DNA repair), Assay Code: REW-, Evaluation Type: Evaluation A (Pre-1980)
[3] = Species/Cell Type: Drosophila melanogaster, Assay Type: Sex-linked recessive lethal gene mutation, Assay Code: SRLT, Evaluation Type: Evaluation A (Pre-1980)
[4] = Species/Cell Type: Nonhuman, Assay Code: CCG+, Evaluation Type: Evaluation A (Pre-1980)
[5] = Species/Cell Type: Salmonella typhimurium (one or more of the five standard strains: TA98, TA100, TA1535, TA1537, and TA1538), Assay Type: Histidine reverse gene mutation, Ames assay, Assay Code: SAL+*, Activation: With metabolic activation, Evaluation Type: Evaluation A (Pre-1980)
[6] = Species/Cell Type: Bacillus subtilis (H17 vs M45), Assay Type: Rec-assay, spot test, DNA effects (bacterial DNA repair), Assay Code: REW+, Evaluation Type: Evaluation A (Pre-1980)
[7] = Species/Cell Type: Fischer rat embryo (RLV/1706) cells, Assay Type: Cell transformation, viral enhanced, Assay Code: CTR+, Evaluation Type: Evaluation A (Pre-1980)
[8] = Species/Cell Type: Salmonella typhimurium (one or more of the five standard strains: TA98, TA100, TA1535, TA1537, and TA1538), Assay Type: Histidine reverse gene mutation, Ames assay, Assay Code: SALT, Evaluation Type: Evaluation A (Pre-1980)
[9] = Species/Cell Type: Nonhuman, Assay Type: Sister-chromatid exchange (SCE) in vitro, Assay Code: SC2+, Evaluation Type: Evaluation B (Post-1980)
[10] = Species/Cell Type: Salmonella typhimurium (one or more of the five standard strains: TA98, TA100, TA1535, TA1537, and TA1538), Assay Type: Histidine reverse gene mutation, Ames assay, Assay Code: SAL+, Evaluation Type: Evaluation A (Pre-1980)

SMILES: O[C@@H]1c2ccc3cc4ccccc4cc3c2[C@@H]2OC2[C@@H]1O (stereo not given in full)
- mutagenic call [1]: active; positive

SMILES: [Cl][Nb]([Cl])([Cl])([Cl])[Cl]
- mutagenic call [2]: inactive; negative

SMILES: Cc1c2ccccc2cc2c1ccc1ccccc12
- mutagenic call (Species/Cell Type: Chinese hamster lung (V79) cells, Assay Type: Forward gene mutation at the HPRT or ouabain locus, Assay Code: V79+*, Activation: With metabolic activation, Evaluation Type: Evaluation A (Pre-1980)): active; positive
- mutagenic call [3]: no conclusion
- mutagenic call (Species/Cell Type: Mouse prostate cells, Assay Type: Cell transformation, Assay Code: CTM+D, Dose Response: With dose response, Evaluation Type: Evaluation A (Pre-1980)): active; positive
- call [4]: active; positive
- mutagenic call (Species/Cell Type: Nonhuman, Assay Type: Sister-chromatid exchange (SCE) in vitro, Assay Code: SC2+D, Dose Response: With dose response, Evaluation Type: Evaluation A (Pre-1980)): active; positive
- mutagenic call [5]: active; positive
- mutagenic call (Species/Cell Type: Syrian hamster embryo (SHE) cells, Assay Type: Cell transformation, clonal assay, Assay Code: CTC+, Evaluation Type: Evaluation A (Pre-1980)): active; positive

SMILES: [Cl][Mn][Cl]
- mutagenic call [6]: active; positive
- mutagenic call [7]: active; positive
- mutagenic call (Species/Cell Type: Nonhuman, Assay Type: Sister-chromatid exchange (SCE) in vitro, Assay Code: SC2T, Evaluation Type: Evaluation B (Post-1980)): no conclusion
- mutagenic call (Species/Cell Type: Syrian hamster embryo (SA7/SHE) cells, Assay Type: Cell transformation, viral enhanced, Assay Code: CT7+, Evaluation Type: Evaluation A (Pre-1980)): active; positive

SMILES: CC(=O)Nc1ccc(C(O)C(O)c2ccccc2)cc1 (stereo not given)
- mutagenic call [8]: no conclusion

SMILES: CO[C@@H]1C[C@](C)(O)Cc2cc3c(c(O)c21)C(=O)c1c(O)cc2c(c1C3=O)O[C@@H]1O[C@@]2(C)[C@H](O)[C@@H](N(C)C)[C@@H]1O
- mutagenic call (Species/Cell Type: Mammalian polychromatic erythrocytes, Assay Type: Micronucleus test, chromosome aberrations, Assay Code: MNT+, Evaluation Type: Evaluation B (Post-1980)): active; positive
- mutagenic call [9]: active; positive

SMILES: CC(=O)Nc1ccc(CCc2ccccc2)cc1
- mutagenic call [8]: no conclusion

SMILES: Cn1ncc2c(NC3=NCCO3)cccc21
- mutagenic call (Species/Cell Type: Mammalian polychromatic erythrocytes, Assay Type: Micronucleus test, chromosome aberrations, Assay Code: MNTT, Evaluation Type: Evaluation B (Post-1980)): no conclusion
- mutagenic call (Species/Cell Type: Nonhuman, Assay Type: Sister-chromatid exchange (SCE) in vivo, Assay Code: SC3T, Evaluation Type: Evaluation B (Post-1980)): no conclusion

SMILES: CNN
- mutagenic call (Species/Cell Type: Escherichia coli WP2 UVRA, Assay Type: Tryptophan reverse gene mutation, Assay Code: WPU+, Evaluation Type: Evaluation A (Pre-1980)): active; positive
- mutagenic call (Species/Cell Type: Human diploid fibroblasts, Assay Type: Unscheduled DNA synthesis (UDS) in vitro, DNA effects, Assay Code: UDH-, Evaluation Type: Evaluation A (Pre-1980)): inactive; negative
- call (Species/Cell Type: Nonhuman, Assay Code: CCG+L, Evaluation Type: Evaluation A (Pre-1980)): active; positive
- mutagenic call (Species/Cell Type: Rodents, Sex: Male, Assay Type: Dominant lethal test, Assay Code: DLT-, Evaluation Type: Evaluation A (Pre-1980)): inactive; negative
- mutagenic call (Species/Cell Type: Saccharomyces cerevisiae, Assay Type: Mitotic recombination or gene conversion, Assay Code: YEC-, Evaluation Type: Evaluation A (Pre-1980)): inactive; negative
- mutagenic call [5]: active; positive

SMILES: C[C@H](CCC(=O)O)[C@H]1CC[C@H]2[C@@H]3CC[C@@H]4C[C@H](O)CC[C@]4(C)[C@H]3CC[C@]12C
- mutagenic call [7]: active; positive
- mutagenic call (Species/Cell Type: Syrian hamster embryo (SHE) cells, Assay Type: Cell transformation, clonal assay, Assay Code: CTCT, Evaluation Type: Evaluation A (Pre-1980)): no conclusion

SMILES: c1cc2ccc3cc4c(c5ccc(c1)c2c35)CCC1OC41 (stereo not given)
- mutagenic call (Species/Cell Type: Chinese hamster lung (V79) cells, Assay Type: Forward gene mutation at the HPRT or ouabain locus, Assay Code: V79-, Evaluation Type: Evaluation A (Pre-1980)): inactive; negative
- mutagenic call (Species/Cell Type: Mouse prostate cells, Assay Type: Cell transformation, Assay Code: CTM+, Evaluation Type: Evaluation A (Pre-1980)): active; positive
- mutagenic call [10]: active; positive

SMILES: CC(C)NNC(=O)c1ccncc1
- mutagenic call (Species/Cell Type: Nonhuman, Assay Type: Sister-chromatid exchange (SCE) in vivo, Assay Code: SC3+, Evaluation Type: Evaluation B (Post-1980)): active; positive

SMILES: CC(=O)c1ccc([N+](=O)[O-])s1
- mutagenic call [10]: active; positive

SMILES: C1COCCN1
- mutagenic call (Species/Cell Type: Salmonella typhimurium, Assay Type: Forward and reverse gene mutation, host-mediated assay, Assay Code: HMA+, Evaluation Type: Evaluation A (Pre-1980)): active; positive

SMILES: CCN(Cc1cccc(S(=O)(=O)[O-])c1)c1ccc(C(=C2C=CC(=[N+](C)C)C=C2)c2ccc(N(CC)Cc3cccc(S(=O)(=O)O)c3)cc2)cc1
- mutagenic call (Species/Cell Type: Bacillus subtilis (H17 vs M45), Assay Type: Rec-assay, spot test, DNA effects (bacterial DNA repair), Assay Code: REWT, Evaluation Type: Evaluation A (Pre-1980)): no conclusion
- mutagenic call (Species/Cell Type: Bacillus subtilis (H17 vs M45T), Assay Type: Rec-assay, spot test, DNA effects (bacterial DNA repair), Assay Code: REXT, Evaluation Type: Evaluation A (Pre-1980)): no conclusion
- call [4]: active; positive
- mutagenic call (Species/Cell Type: Salmonella typhimurium (one or more of the five standard strains: TA98, TA100, TA1535, TA1537, and TA1538), Assay Type: Histidine reverse gene mutation, Ames assay, Assay Code: SAL-, Evaluation Type: Evaluation A (Pre-1980)): inactive; negative

SMILES: NC[C@H]1O[C@H](O[C@H]2[C@H](O)[C@@H](O[C@H]3O[C@H](CO)[C@@H](O)[C@H](N)[C@H]3O)[C@H](N)C[C@@H]2N)[C@H](N)C[C@@H]1O
- mutagenic call (Species/Cell Type: Saccharomyces cerevisiae, Assay Type: Mitotic recombination or gene conversion, Assay Code: YEH-, Evaluation Type: Evaluation A (Pre-1980)): inactive; negative

SMILES: C=CCNC(=O)OC1(SC)C(=O)c2ccccc2C1=O
- mutagenic call (Species/Cell Type: Salmonella typhimurium, Assay Type: Forward and reverse gene mutation, host-mediated assay, Assay Code: HMAT, Evaluation Type: Evaluation A (Pre-1980)): no conclusion

SMILES: CC(=O)N(O)c1ccc(-c2ccccc2)cc1
- mutagenic call (Species/Cell Type: Human diploid fibroblasts, Assay Type: Unscheduled DNA synthesis (UDS) in vitro, DNA effects, Assay Code: UDH+, Evaluation Type: Evaluation A (Pre-1980)): active; positive
- mutagenic call [9]: active; positive

SMILES: CN(C)N=Nc1ccc(O)cc1
- mutagenic call [3]: no conclusion
- mutagenic call (Species/Cell Type: Saccharomyces cerevisiae, Assay Type: Mitotic recombination or gene conversion, Assay Code: YEC+/-*, Activation: With metabolic activation, Evaluation Type: Evaluation A (Pre-1980)): inactive; positive without activation, negative with activation

SMILES: NC(=O)N1c2ccccc2[C@H](O)[C@@H](O)c2ccccc21
- mutagenic call (Species/Cell Type: Human lymphocytes, Assay Type: Sister-chromatid exchange (SCE) in vitro, Assay Code: SCL+, Evaluation Type: Evaluation B (Post-1980)): active; positive
- mutagenic call (Species/Cell Type: Human, Assay Type: Sister-chromatid exchange (SCE) in vitro, Assay Code: SC1+, Evaluation Type: Evaluation B (Post-1980)): active; positive

SMILES: CSc1nc2c(c(=O)n(C)c(=O)n2C)n1C
- mutagenic call (Species/Cell Type: Allium cepa, Assay Type: Chromosome aberrations, Assay Code: ALC+D, Dose Response: With dose response, Evaluation Type: Evaluation A (Pre-1980)): active; positive

SMILES: O[C@H]1C=Cc2cc3c4ccccc4c4ccccc4c3cc2[C@@H]1O
- mutagenic call (Species/Cell Type: Nonhuman, Assay Type: Sister-chromatid exchange (SCE) in vitro, Assay Code: SC2+D, Dose Response: With dose response, Evaluation Type: Evaluation B (Post-1980)): active; positive

SMILES: O[C@@H]1[C@H]2O[C@H]2c2cc3ccc4ccccc4c3cc2[C@H]1O
- mutagenic call [1]: active; positive

SMILES: COC(=O)/C=C(\C)OP(=O)(OC)OC
- mutagenic call (Species/Cell Type: Human, Assay Type: Sister-chromatid exchange (SCE) in vitro, Assay Code: SC1+D, Dose Response: With dose response, Evaluation Type: Evaluation B (Post-1980)): active; positive
- mutagenic call (Species/Cell Type: Tradescantia species, Assay Type: Chromosome aberrations, Assay Code: TRC+, Evaluation Type: Evaluation A (Pre-1980)): active; positive
- mutagenic call (Species/Cell Type: Vicia faba, Assay Type: Chromosome aberrations, Assay Code: VIC+, Evaluation Type: Evaluation A (Pre-1980)): active; positive

SMILES: Cl
- mutagenic call [6]: active; positive
- mutagenic call [2]: inactive; negative
- mutagenic call (Species/Cell Type: Syrian hamster embryo (SA7/SHE) cells, Assay Type: Cell transformation, viral enhanced, Assay Code: CT7-, Evaluation Type: Evaluation A (Pre-1980)): inactive; negative

SMILES: CCC(COS(C)(=O)=O)(COS(C)(=O)=O)COS(C)(=O)=O
- mutagenic call (Species/Cell Type: Arabidopsis species, Assay Type: Gene mutation, Assay Code: ARM+, Evaluation Type: Evaluation A (Pre-1980)): active; positive
